{
  "source": "paper PMC11597207",
  "about": "“Synthesis and Anti-Inflammatory and Analgesic Potentials of Ethyl 2-(2,5-Dioxo-1-Phenylpyrrolidin-3-yl)-2-Methylpropanoate” (Pharmaceuticals, 2024)",
  "biological_target": "T1, COX-2 (Homo sapiens, UniProt P35354)",
  "T1 construct": "purchased Cayman Chemical Batch No.: G5234",
  "T1 sequence (P35354 18-604)": "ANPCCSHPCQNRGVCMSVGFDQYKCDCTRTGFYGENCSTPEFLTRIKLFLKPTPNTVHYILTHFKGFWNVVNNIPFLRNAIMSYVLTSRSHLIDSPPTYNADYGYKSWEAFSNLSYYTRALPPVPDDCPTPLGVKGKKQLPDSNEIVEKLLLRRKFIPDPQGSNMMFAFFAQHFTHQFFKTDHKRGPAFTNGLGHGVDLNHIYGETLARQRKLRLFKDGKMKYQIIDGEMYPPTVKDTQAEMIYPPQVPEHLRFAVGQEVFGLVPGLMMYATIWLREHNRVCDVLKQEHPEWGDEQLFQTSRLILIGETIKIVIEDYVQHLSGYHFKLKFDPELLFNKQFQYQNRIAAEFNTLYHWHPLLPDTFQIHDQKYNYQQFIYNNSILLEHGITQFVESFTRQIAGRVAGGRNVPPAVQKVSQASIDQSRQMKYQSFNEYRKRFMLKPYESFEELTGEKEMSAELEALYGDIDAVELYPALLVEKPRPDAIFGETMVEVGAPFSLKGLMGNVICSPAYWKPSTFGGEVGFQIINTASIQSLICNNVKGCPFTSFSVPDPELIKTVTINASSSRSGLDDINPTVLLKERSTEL",
  "experiment": "COX-2 inhibitory assay",
  "format": "biochemical",
  "procedure": "The inhibitory potential of synthesized MAK01 was assessed using the COX-2 inhibitory protocol. The process started with the preparation of a COX-2 enzyme solution with a concentration of 300 U per ml. The activation of the enzymes was achieved by taking and mixing 10 μL and 50 μL of the COX-2 enzyme solution and a co-factor solution, respectively. Once mixed, this solution needed to be chilled. The chilling process was carried out at 4 °C in an ice bath. The duration for this cooling phase was set at five to six minutes. […] It was made up of 0.1 M Tris buffer with a pH of 8.0, 1 mM of hematin, 0.9 mM of glutathione, and 0.24 mM of TMPD in a phosphate buffer. Following the initial steps, a test sample was prepared. The volume of this sample was fixed at 20 μL. The 20 μL sample was mixed with 60 μL COX-2 solution. After combining them, the sample and enzyme solution were kept at ambient temperature. The solution was allowed to rest for a duration from five to ten minutes. To start the reaction, 20 μL of 30 mM arachidonic acid was incorporated. Upon adding the acid, the solution was subjected to an incubation period. This period lasted for 15 min at a temperature of 37 °C. Post incubation, HCl was added to stop the reaction. The absorbance of this final solution was then measured. This was carried out using a UV–visible spectrophotometer at a specific 570 nm wavelength. Similarly, the above procedure was used for all the other concentrations of the test sample. The COX-2 enzyme inhibition was calculated as per the below equation. […] Using the below formula, the percent inhibition of each sample was calculated. % Inhibition=Abs. test sample−Abs. background/Abs. solvent blank−Abs. background×100\nUsing established protocols, the inhibitory potency of MAK01 against both COX-1 and COX-2 enzymes was assessed. This evaluation allowed for the determination of the selectivity of these new compounds. The IC50 values for both COX-1 and COX-2 were then used to calculate the selectivity index of the compound.",
  "data": [
    {"smiles": "CCOC(=O)C(C)(C)C1CC(=O)N(c2ccccc2)C1=O", "note": "(stereo not drawn) [MAK01, ethyl 2-(2,5-dioxo-1-phenylpyrrolidin-3-yl)-2-methylpropanoate]", "values": [
      {"measurement": "IC50", "value": 449, "unit": "µM"},
      {"measurement": "COX-2 percent inhibition", "setting": "62.5 μg/mL", "value": 40, "unit": "%"},
      {"measurement": "inhibition at 62.5 µg/mL", "setting": "62.5 μg/mL, read-out: COX-2 percent inhibition", "value": 40.1, "unit": "%"},
      {"measurement": "COX-2 percent inhibition", "setting": "125 μg/mL", "value": 49, "unit": "%"},
      {"measurement": "inhibition at 125 µg/mL", "setting": "125 μg/mL, read-out: COX-2 percent inhibition", "value": 49.4, "unit": "%"},
      {"measurement": "COX-2 percent inhibition", "setting": "250 μg/mL", "value": 59, "unit": "%"},
      {"measurement": "inhibition at 250 µg/mL", "setting": "250 μg/mL, read-out: COX-2 percent inhibition", "value": 58.9, "unit": "%"},
      {"measurement": "COX-2 percent inhibition", "setting": "500 μg/mL", "value": 68, "unit": "%"},
      {"measurement": "inhibition at 500 µg/mL", "setting": "500 μg/mL, read-out: COX-2 percent inhibition", "value": 67.8, "unit": "%"},
      {"measurement": "COX-2 percent inhibition", "setting": "1000 μg/mL", "value": 79, "unit": "%"},
      {"measurement": "inhibition at 1000 µg/mL", "setting": "1000 μg/mL, read-out: COX-2 percent inhibition", "value": 78.7, "unit": "%"},
      {"measurement": "Selectivity for COX-2 compared to COX-1", "setting": "from IC50 values of COX-1 and COX-2", "value": 3, "unit": "fold"}
    ]}
  ]
}
